The text below walks through data of patent US20240238424A1, “HETEROBIFUNCTIONAL COMPOUNDS AND METHODS OF TREATING DISEASE” (Halda Therapeutics OpCo, Inc., priority 2021, published 2024).

Holding throughout (assay type): cell-based
Assay [1] deals with 293 mutant EGFR_T790M L858R Cells. Briefly: Cellular growth inhibition assay (CTG), 293 mutant EGFR_T790M L858R cells. Conditions: 293 mutant EGFR T790M L858R cells, CellTiter-Glo 2.0, day-5. On the procedure:
Cells were seeded in Poly-D-lysine-treated 384-well white plates, with 25 μL cell suspension at 250 cells/well for continuous treatments, and 1000 cells/well for washout treatments. Plates were spun at 300×g for 3 minutes, and cells were cultured at 37° C. with 5% CO2 in a humidified tissue culture incubator.
After 24 hours, the test compounds were diluted with cell culture medium in 96 deep well plates. DMSO was used as a negative control. A 25 μL aliquot of compound-containing medium was added in each well, at a final top concentration of 10 μM or 30 μM test compound, with 3-fold dilutions. For washout assays, after 4 hours, cell medium with compound was removed, and the cells were washed with 75p L fresh medium. Plates were then spun at 300×g for 3 minutes and replaced with 50 μL fresh medium in each well. Plates were then spun at 300×g for 3 minutes again and cultured at 37° C. with 5% CO2.
At day-0 and day-5 of compound treatments, cell viability was quantified with CellTiter-Glo 2.0 (Promega). After equilibrating cell plates at room temperature for 30 minutes, 25 μL CellTiter-Glo 2.0 reagent was dispensed into each well (on top of 50 μL of cell culture). Plates were mixed on a shaker for 2 minutes at 500 rpm, followed by a 10-minute incubation at room temperature. Luminescence readings were measured with an EnVision Plate Reader. Data was normalized to DMSO treated day-0 cell wells. A four-parameter non-linear regression curve fit was applied to dose-response data in Prism to determine the half maximal growth inhibitory concentration (GI50) of each compound.
For orientation: In ATP-based viability assays light output follows the ATP content of the culture.

In the next assay the target is T1, GSPT1 (Homo sapiens, UniProt P15170+Q96SW2).
T1 construct: host or cells: HEK293 LgBiT cell line
T1 sequence (P15170 whole entry): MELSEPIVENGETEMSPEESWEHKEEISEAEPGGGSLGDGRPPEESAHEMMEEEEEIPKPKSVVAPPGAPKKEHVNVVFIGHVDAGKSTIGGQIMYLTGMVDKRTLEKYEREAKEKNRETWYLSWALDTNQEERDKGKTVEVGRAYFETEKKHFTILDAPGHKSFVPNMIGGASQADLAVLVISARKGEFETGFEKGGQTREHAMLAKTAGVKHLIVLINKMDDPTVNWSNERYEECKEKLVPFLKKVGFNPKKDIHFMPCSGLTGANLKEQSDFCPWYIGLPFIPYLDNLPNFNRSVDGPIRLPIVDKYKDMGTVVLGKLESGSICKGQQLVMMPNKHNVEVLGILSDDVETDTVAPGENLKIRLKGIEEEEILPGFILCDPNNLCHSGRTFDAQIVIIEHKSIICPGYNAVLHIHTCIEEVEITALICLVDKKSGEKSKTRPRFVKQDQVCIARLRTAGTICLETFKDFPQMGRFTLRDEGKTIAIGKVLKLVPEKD
T1 sequence (Q96SW2 whole entry): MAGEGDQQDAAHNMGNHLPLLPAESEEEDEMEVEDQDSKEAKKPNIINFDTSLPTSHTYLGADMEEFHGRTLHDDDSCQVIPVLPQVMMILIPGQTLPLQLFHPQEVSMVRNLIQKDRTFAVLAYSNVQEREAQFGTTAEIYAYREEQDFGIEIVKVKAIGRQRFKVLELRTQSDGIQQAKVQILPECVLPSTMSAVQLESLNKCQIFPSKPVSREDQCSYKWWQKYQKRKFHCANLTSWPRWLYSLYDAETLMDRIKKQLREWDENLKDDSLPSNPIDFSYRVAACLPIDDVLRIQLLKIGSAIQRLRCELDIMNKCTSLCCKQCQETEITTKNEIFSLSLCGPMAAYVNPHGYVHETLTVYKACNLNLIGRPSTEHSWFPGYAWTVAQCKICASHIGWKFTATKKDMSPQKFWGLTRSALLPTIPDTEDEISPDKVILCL
T1 sequence (Q16531 whole entry partner): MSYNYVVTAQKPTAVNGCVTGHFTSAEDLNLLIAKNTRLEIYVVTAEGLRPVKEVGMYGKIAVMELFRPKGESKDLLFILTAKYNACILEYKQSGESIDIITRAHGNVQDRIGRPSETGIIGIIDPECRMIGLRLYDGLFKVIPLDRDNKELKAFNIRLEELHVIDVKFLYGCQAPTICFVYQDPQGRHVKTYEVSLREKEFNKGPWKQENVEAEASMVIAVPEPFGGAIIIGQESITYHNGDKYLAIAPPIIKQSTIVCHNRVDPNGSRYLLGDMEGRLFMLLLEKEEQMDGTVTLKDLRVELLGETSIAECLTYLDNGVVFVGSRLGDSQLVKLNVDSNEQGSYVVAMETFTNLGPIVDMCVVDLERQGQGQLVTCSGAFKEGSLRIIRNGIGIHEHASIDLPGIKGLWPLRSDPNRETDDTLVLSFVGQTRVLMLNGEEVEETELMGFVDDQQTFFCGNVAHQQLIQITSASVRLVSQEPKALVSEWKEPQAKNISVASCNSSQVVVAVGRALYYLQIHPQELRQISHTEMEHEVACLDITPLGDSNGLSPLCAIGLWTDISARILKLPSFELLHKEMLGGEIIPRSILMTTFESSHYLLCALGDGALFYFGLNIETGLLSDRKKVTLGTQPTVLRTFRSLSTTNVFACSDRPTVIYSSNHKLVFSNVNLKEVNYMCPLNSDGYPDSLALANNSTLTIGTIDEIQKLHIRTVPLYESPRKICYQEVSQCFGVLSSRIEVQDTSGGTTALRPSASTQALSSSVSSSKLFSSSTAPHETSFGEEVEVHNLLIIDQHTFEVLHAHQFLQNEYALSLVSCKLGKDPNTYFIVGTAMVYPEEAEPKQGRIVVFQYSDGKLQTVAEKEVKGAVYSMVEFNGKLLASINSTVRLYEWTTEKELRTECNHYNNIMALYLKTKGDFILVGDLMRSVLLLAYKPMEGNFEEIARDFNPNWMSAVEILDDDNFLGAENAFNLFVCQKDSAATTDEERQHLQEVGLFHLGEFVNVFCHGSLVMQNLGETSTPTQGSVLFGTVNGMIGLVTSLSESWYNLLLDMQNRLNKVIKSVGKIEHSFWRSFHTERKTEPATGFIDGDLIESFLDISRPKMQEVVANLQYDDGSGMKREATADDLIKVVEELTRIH
Briefly: GSPT1 HiBit degradation assay. To be noted: HEK293 LgBiT cells expressing GSPT1_HiBiT, luminescence after 6 hours. The method, boiled down: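 Degradation readout is luminescence at 6 h, with DC50 taken as the concentration giving 50% GSPT1 loss. Compound titrations were added together with endurazine (0.5× final) to HEK293 LgBiT/GSPT1-HiBiT cells seeded the day before and kept at 37 °C.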
(With HiBiT, luminescence reflects the tagged protein that the partner subunit can reach.)

For the next assay, the system named is HeLa KRas G12C cells. The assay can be described thus: Cellular growth inhibition assay (CTG), HeLa KRas G12C cells. To be noted: Homo sapiens, CellTiter-Glo 2.0, day-5. The method, boiled down:
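Cells were seeded at 250 cells/well (continuous) or 1000 cells/well (washout, compound removed after 4 h), then treated after 24 h with 3-fold dilutions from a 10 μM or 30 μM final top concentration. CellTiter-Glo 2.0 luminescence at day 0 and day 5 was normalized to DMSO day-0 wells; GI50 from four-parameter fit.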

In the case of `COc1nn(C)cc1Nc1nc(N2CC(NC(=O)/C=C/CN(C)CCOCCOCCOCCOCCOCCCCCc3cc(Cl)cc(NC(=O)NCc4ccc5c(c4)CN(C4CCC(=O)NC4=O)C5=O)c3)[C@H](F)C2)nc2c1ncn2C` (stereo partly shown) [Compound I-159], the 50% growth inhibitory concentration (GI50) (as a rule, the concentration that inhibits growth by half) in assay [1] is 1000 to 5000 nM. Moreover, the DC50 – broadly, the concentration at which degradation of the target reaches its halfway point – at GSPT1 (Table 3A) was 0.25 to 5 µM.
For `C=CC(=O)NC1CN(c2nc(Nc3cn(CCOCCOCCOCCOCCOCCOCCOCCCCCc4cc(Cl)cc(NC(=O)NCc5ccc6c(c5)CN(C5CCC(=O)NC5=O)C6=O)c4)nc3OC)c3ncn(C)c3n2)C[C@H]1F` (stereo partly shown) [Compound I-130], in that order: 100 to 1000 nM and 0.25 to 5 µM.
For `COc1cc(N(C)CCN(C)C)c(NC(=O)/C=C/CN(C)CCOCCOCCOCCOCCOCCCCCc2cc(Cl)cc(NC(=O)NCc3ccc4c(c3)CN(C3CCC(=O)NC3=O)C4=O)c2)cc1Nc1nccc(-c2cn(C)c3ccccc23)n1` (stereo not shown) [Compound I-151], in that order: 100 to 1000 nM and 0.25 to 5 µM.
In assay [1], `C=CC(=O)Nc1cc(Nc2nccc(-c3cn(C)c4ccccc34)n2)c(OC)cc1N(C)CCN(C)CCOCCOCCOCCOCCOCCOCCOCCOCCOCCOCCOCCCCCc1cc(Cl)cc(NC(=O)NCc2ccc3c(c2)CN(C2CCC(=O)NC2=O)C3=O)c1` (stereo not shown) [Compound I-161] showed a GI50 of 1000 to 5000 nM. This compound gave a half-maximal degradation concentration (DC50) at GSPT1 (Table 3A) of 0.25 to 5 µM.
With `COc1cc(N2CCN(C(=O)COCCOCCOCCOCCOCCOCCOCCCCCc3cc(Cl)cc(NC(=O)NCc4ccc5c(c4)CN(C4CCC(=O)NC4=O)C5=O)c3)CC2)ccc1Nc1ncc(Cl)c(Nc2ccccc2P(C)(C)=O)n1` (stereo not shown) [Compound I-120], the 50% growth inhibitory concentration (GI50) in assay [1] fell in the range of 1000 to 5000 nM. The compound also gave a half-maximal degradation concentration (DC50) on GSPT1 (Table 3A) of 0.25 to 5 µM.
In the same order, the values of `C=CC(=O)N[C@@H]1CN(c2nc(Nc3cn(CCOCCOCCOCCCCCc4cc(Cl)cc(NC(=O)NCc5ccc6c(c5)CN(C5CCC(=O)NC5=O)C6=O)c4)nc3OC)c3ncn(C)c3n2)C[C@H]1F` (stereo partly shown) [Compound I-122] are 100 to 1000 nM and below 0.25 µM.
Compound `COc1cc(N(C)CCN(C)C)c(NC(=O)/C=C/CN(C)CCOCCOCCOCCOCCOCCOCCOCCOCCOCCCCCc2cc(Cl)cc(NC(=O)NCc3ccc4c(c3)CN(C3CCC(=O)NC3=O)C4=O)c2)cc1Nc1nccc(-c2cn(C)c3ccccc23)n1` (stereo not shown) [Compound I-132] gave a GI50 in assay [1] of 1000 to 5000 nM. At GSPT1 (Table 3A), this compound displayed a DC50 of 0.25 to 5 µM.
For the compound `COc1cc(N(C)CCN(C)C)c(NC(=O)/C=C/CN(C)CCOCCOCCOCCCCCc2cc(Cl)cc(NC(=O)NCc3ccc4c(c3)CN(C3CCC(=O)NC3=O)C4=O)c2)cc1Nc1nccc(-c2cn(C)c3ccccc23)n1` (stereo not shown) [Compound I-145], the concentration for 50% growth inhibition (GI50) in assay [1] is 1000 to 5000 nM. In addition, on GSPT1 (Table 3A), the DC50 was in the range of 0.25 to 5 µM.
`C=CC(=O)NC1CN(c2nc(Nc3cn(CCOCCOCCOCCOCCOCCCCCc4cc(Cl)cc(NC(=O)NCc5ccc6c(c5)CN(C5CCC(=O)NC5=O)C6=O)c4)nc3OC)c3ncn(C)c3n2)C[C@H]1F` (stereo partly shown) [Compound I-155] displayed a 50% growth inhibitory concentration (GI50) in assay [1] of 100 to 1000 nM. This compound had a 50% degradation concentration (DC50) at GSPT1 (Table 3A) below 0.25 µM.
For `C=CC(=O)Nc1cc(Nc2nccc(-c3cn(C)c4ccccc34)n2)c(OC)cc1N(C)CCN(C)CCOCCOCCOCCOCCOCCCCCc1cc(Cl)cc(NC(=O)NCc2ccc3c(c2)CN(C2CCC(=O)NC2=O)C3=O)c1` (stereo not shown) [Compound I-125], in that order: 1000 to 5000 nM and 0.25 to 5 µM.
With `C=C(F)C(=O)N1CCN(c2nc(OC[C@@H]3CCCN3CCCOCCOCCOCCOCCOCCOCCOCCCCCc3cccc(NC(=O)NCc4ccc5c(c4)CN(C4CCC(=O)NC4=O)C5=O)n3)nc3c2CCN(c2cccc4cccc(Cl)c24)C3)C[C@@H]1CC#N` (stereo partly shown) [Compound I-147], the GI50 in the assay with HeLa KRas G12C cells is 3000 to 10000 nM. In addition, the DC50 on GSPT1 (Table 3A) is 5 to 10 µM.
In turn, `C=C(F)C(=O)N1CCN(c2nc(OC[C@@H]3CCCN3CCOCCOCCOCCOCCOCCOCCOCCOCCCCCCCCCCCCCCc3cc(Cl)cc(NC(=O)NCc4ccc5c(c4)CN(C4CCC(=O)NC4=O)C5=O)c3)nc3c2CCN(c2cccc4cccc(Cl)c24)C3)C[C@@H]1CC#N` (stereo partly shown) [Compound I-51] had a GI50 in the assay with HeLa KRas G12C cells below 1000 nM. This compound showed a half-maximal degradation concentration (DC50) at GSPT1 (Table 3) of 0.25 to 5 µM.
For `C=C(F)C(=O)N1CCN(c2nc(OC[C@@H]3CCCN3CCOCCOCCOCCOCCOCCOCCOCCOCCOCCOCCOCCOCCOCCOCCCCCCCCc3cc(Cl)cc(NC(=O)NCc4ccc5c(c4)CN(C4CCC(=O)NC4=O)C5=O)c3)nc3c2CCN(c2cccc4cccc(Cl)c24)C3)C[C@@H]1CC#N` (stereo partly shown) [Compound I-47], in that order: below 1000 nM and below 0.25 µM.
The compound `C=CC(=O)N1CCN(c2nc(NCCC(=O)N(C)CCOCCOCCOCCOCCOCCOCCOCCOCCc3cc(Cl)cc(NC(=O)NCc4ccc5c(c4)CN(C4CCC(=O)NC4=O)C5=O)c3)nc3c(F)c(-c4cc(O)cc5ccccc45)c(Cl)cc23)CC1` (stereo not shown) [Compound I-18, N-[2-[2-[2-[2-[2-[2-[2-[2-[2-[3-chloro-5-[[2-(2,6-dioxo-3-piperidyl)-1-oxo-isoindolin-5-yl]methylcarbamoylamino]phenyl]ethoxy]ethoxy]ethoxy]ethoxy]ethoxy]ethoxy]ethoxy]ethoxy]ethyl]-3-[[6-chloro-8-fluoro-7-(3-hydroxy-1-naphthyl)-4-(4-prop-2-enoylpiperazin-1-yl)quinazolin-2-yl]amino]-N-methyl-propanamide] registered a concentration for 50% growth inhibition (GI50) in the assay on HeLa KRas G12C cells above 10000 nM. This compound had a 50% degradation concentration (DC50) on GSPT1 (Table 3) above 10 µM.
In the same order, the values of `C=C(F)C(=O)N1CCN(c2nc(OC[C@@H]3CCCN3CCOCCOCCOCCOCCOCCOCCOCCOCCOCCOCCOCCOCCCCCCCCc3cc(Cl)cc(NC(=O)NCc4ccc5c(c4)CN(C4CCC(=O)NC4=O)C5=O)c3)nc3c2CCN(c2cccc4cccc(Cl)c24)C3)C[C@@H]1CC#N` (stereo partly shown) [Compound I-46] are below 1000 nM and below 0.25 µM.
Turning to `C=C(F)C(=O)N1CCN(c2nc(OC[C@@H]3CCCN3CCOCCOCCOCCOCCOCCOCCOCCOCCOCCCCCc3cc(Cl)cc(NC(=O)NCc4ccc5c(c4)CN(C4CCC(=O)NC4=O)C5=O)c3)nc3c2CCN(c2cccc4cccc(Cl)c24)C3)C[C@@H]1CC#N` (stereo partly shown) [Compound I-44], in the assay on HeLa KRas G12C cells, the GI50 was in the range of 1000 to 3000 nM. On GSPT1 (Table 3), this compound displayed a DC50 of 0.25 to 5 µM.
In the assay with HeLa KRas G12C cells, `C=C(F)C(=O)N1CCN(c2nc(OC[C@@H]3CCCN3CCOCCOCCOCCOCCOCCOCCOCCOCCOCCOCCc3cc(Cl)cc(NC(=O)NCc4ccc5c(c4)CN(C4CCC(=O)NC4=O)C5=O)c3)nc3c2CCN(c2cccc4cccc(Cl)c24)C3)C[C@@H]1CC#N` (stereo partly drawn) [Compound I-12, 1-[3-chloro-5-[2-[2-[2-[2-[2-[2-[2-[2-[2-[2-[2-[(2S)-2-[[7-(8-chloro-1-naphthyl)-4-[(3S)-3-(cyanomethyl)-4-(2-fluoroprop-2-enoyl)piperazin-1-yl]-6,8-dihydro-5H-pyrido[3,4-d]pyrimidin-2-yl]oxymethyl]pyrrolidin-1-yl]ethoxy]ethoxy]ethoxy]ethoxy]ethoxy]ethoxy]ethoxy]ethoxy]ethoxy]ethoxy]ethyl]phenyl]-3-[[2-(2,6-dioxo-3-piperidyl)-1-oxo-isoindolin-5-yl]methyl]urea] registered a 50% growth inhibitory concentration (GI50) of 3000 to 10000 nM. Further, the half-maximal degradation concentration (DC50) at GSPT1 (Table 3) lay in the range of 5 to 10 µM.
Compound `C=C(F)C(=O)N1CCN(c2nc(OC[C@@H]3CCCN3CCCCCCCCNc3cccc4c3CN(C3CCC(=O)NC3=O)C4=O)nc3c2CCN(c2cccc4cccc(Cl)c24)C3)C[C@@H]1CC#N` (stereo partly drawn) [Compound I-3, 2-((2S)-4-(7-(8-chloronaphthalen-1-yl)-2-(((2S)-1-(8-((2-(2,6-dioxopiperidin-3-yl)-1-oxoisoindolin-4-yl)amino)octyl)pyrrolidin-2-yl)methoxy)-5,6,7,8-tetrahydropyrido[3,4-d]pyrimidin-4-yl)-1-(2-fluoroacryloyl)piperazin-2-yl)acetonitrile] displayed a GI50 in the assay on HeLa KRas G12C cells of 3000 to 10000 nM. On GSPT1 (Table 3), this compound showed a half-maximal degradation concentration (DC50) above 10 µM.
In the same order, the values of `C=C(F)C(=O)N1CCN(c2nc(OC[C@@H]3CCCN3CCOCCOCCOCCOCCOCCOCCCCCCCCc3cc(Cl)cc(NC(=O)NCc4ccc5c(c4)CN(C4CCC(=O)NC4=O)C5=O)c3)nc3c2CCN(c2cccc4cccc(Cl)c24)C3)C[C@@H]1CC#N` (stereo partly shown) [Compound I-41] are below 1000 nM and below 0.25 µM.
For `C=C(F)C(=O)N1CCN(c2nc(OC[C@@H]3CCCN3CCOCCOCCOCCOCCOCCOCCOCCOCCc3cc(Cl)cc(NC(=O)NCc4ccc5c(c4)CN(C4CCC(=O)NC4=O)C5=O)c3)nc3c2CCN(c2cccc4cccc(Cl)c24)C3)C[C@@H]1CC#N` (stereo partly drawn) [Compound I-11, 1-[3-chloro-5-[2-[2-[2-[2-[2-[2-[2-[2-[2-[(2S)-2-[[7-(8-chloro-1-naphthyl)-4-[(3S)-3-(cyanomethyl)-4-(2-fluoroprop-2-enoyl)piperazin-1-yl]-6,8-dihydro-5H-pyrido[3,4-d]pyrimidin-2-yl]oxymethyl]pyrrolidin-1-yl]ethoxy]ethoxy]ethoxy]ethoxy]ethoxy]ethoxy]ethoxy]ethoxy]ethyl]phenyl]-3-[[2-(2,6-dioxo-3-piperidyl)-1-oxo-isoindolin-5-yl]methyl]urea], in that order: above 10000 nM and above 10 µM.
